Experimental data published in the OligoGym collection.
HELM strings list units from the 5' end as sugar, base in round brackets, then linkage (d deoxyribose, r ribose, m 2'-O-methyl, p phosphodiester). Strings are as the collection lists them; they lack the last nucleoside at the 3' end of the tested compound. [moe] = 2'-O-(2-methoxyethyl) (MOE); [sp] = phosphorothioate linkage; [m5C] = 5-methylcytosine

Biological target: FUS
Experiment: mouse, dose not given
Settings: ASO

Row | Substance | 3 h FOB score
1 | RNA1{[moe](A)[sp].[moe](G)p.[moe](G)p.[moe](T)p.[moe](T)p.d(A)[sp].d([m5C])[sp].d(A)[sp].d(A)[sp].d(A)[sp].d(A)[sp].d(T)[sp].d(A)[sp].d(A)[sp].d([m5C])[sp].[moe](G)p.[moe](A)p.[moe](G)[sp].[moe](G)}$$$$ (last 3' nucleoside missing) | 5.75 score 0-7
2 | RNA1{[moe](A)[sp].[moe](G)p.[moe](G)p.[moe]([m5C])p.[moe](A)p.d(A)[sp].d([m5C])[sp].d(T)[sp].d(T)[sp].d([m5C])[sp].d([m5C])[sp].d([m5C])[sp].d([m5C])[sp].d(T)[sp].d(T)[sp].[moe](A)p.[moe](A)p.[moe](A)[sp].[moe](G)}$$$$ (last 3' nucleoside missing) | 1 score 0-7
3 | RNA1{[moe](A)[sp].[moe](G)p.[moe](T)p.[moe](T)p.[moe](A)p.d([m5C])[sp].d(A)[sp].d(A)[sp].d(T)[sp].d(T)[sp].d(A)[sp].d([m5C])[sp].d(A)[sp].d(T)[sp].d(A)[sp].[moe](G)p.[moe](T)p.[moe]([m5C])[sp].[moe]([m5C])}$$$$ (last 3' nucleoside missing) | 4 score 0-7
4 | RNA1{[moe](A)[sp].[moe](G)p.[moe](T)p.[moe]([m5C])p.[moe](A)p.d(G)[sp].d(G)[sp].d(T)[sp].d(T)[sp].d(A)[sp].d(A)[sp].d([m5C])[sp].d([m5C])[sp].d(A)[sp].d(T)[sp].[moe](T)p.[moe](A)p.[moe]([m5C])[sp].[moe]([m5C])}$$$$ (last 3' nucleoside missing) | 1 score 0-7
5 | RNA1{[moe](A)[sp].[moe](T)p.[moe]([m5C])p.[moe](A)p.[moe](T)p.d([m5C])[sp].d(G)[sp].d(G)[sp].d(T)[sp].d(T)[sp].d(T)[sp].d([m5C])[sp].d([m5C])[sp].d([m5C])[sp].d(T)[sp].[moe](T)p.[moe](G)p.[moe]([m5C])[sp].[moe](A)}$$$$ (last 3' nucleoside missing) | 5.5 score 0-7
6 | RNA1{[moe](A)[sp].[moe]([m5C])p.[moe]([m5C])p.[moe](A)p.[moe](T)p.d([m5C])[sp].d([m5C])[sp].d(T)[sp].d(T)[sp].d(A)[sp].d(A)[sp].d(A)[sp].d(A)[sp].d([m5C])[sp].d([m5C])[sp].[moe](G)p.[moe](T)p.[moe](G)[sp].[moe](T)}$$$$ (last 3' nucleoside missing) | 1 score 0-7
7 | RNA1{[moe](G)[sp].[moe](A)p.[moe](G)p.[moe]([m5C])p.[moe](T)p.d(A)[sp].d(G)[sp].d(T)[sp].d(T)[sp].d(T)[sp].d([m5C])[sp].d(T)[sp].d(A)[sp].d(T)[sp].d(T)[sp].[moe](T)p.[moe](G)p.[moe]([m5C])[sp].[moe]([m5C])}$$$$ (last 3' nucleoside missing) | 0 score 0-7
8 | RNA1{[moe](G)[sp].[moe](A)p.[moe]([m5C])p.[moe]([m5C])p.[moe]([m5C])p.d([m5C])[sp].d(T)[sp].d([m5C])[sp].d(T)[sp].d(T)[sp].d(A)[sp].d(T)[sp].d(T)[sp].d(A)[sp].d(A)[sp].[moe]([m5C])p.[moe]([m5C])p.[moe](T)[sp].[moe](G)}$$$$ (last 3' nucleoside missing) | 4 score 0-7
9 | RNA1{[moe](G)[sp].[moe](G)p.[moe](T)p.[moe](T)p.[moe](A)p.d([m5C])[sp].d(A)[sp].d(A)[sp].d(A)[sp].d(A)[sp].d(T)[sp].d(A)[sp].d(A)[sp].d([m5C])[sp].d(G)[sp].[moe](A)p.[moe](G)p.[moe](G)[sp].[moe](G)}$$$$ (last 3' nucleoside missing) | 3 score 0-7
10 | RNA1{[moe](G)[sp].[moe](G)p.[moe](T)p.[moe](T)p.[moe](G)p.d(A)[sp].d([m5C])[sp].d(A)[sp].d(A)[sp].d([m5C])[sp].d([m5C])[sp].d(A)[sp].d(A)[sp].d(G)[sp].d(T)[sp].[moe](A)p.[moe](G)p.[moe](T)[sp].[moe](T)}$$$$ (last 3' nucleoside missing) | 5 score 0-7
11 | RNA1{[moe](G)[sp].[moe](G)p.[moe](T)p.[moe]([m5C])p.[moe](A)p.d([m5C])[sp].d(T)[sp].d(T)[sp].d(T)[sp].d(T)[sp].d(A)[sp].d(A)[sp].d(T)[sp].d(G)[sp].d(G)[sp].[moe](G)p.[moe](A)p.[moe](A)[sp].[moe]([m5C])}$$$$ (last 3' nucleoside missing) | 4.75 score 0-7
12 | RNA1{[moe](G)[sp].[moe](G)p.[moe]([m5C])p.[moe](A)p.[moe](T)p.d(T)[sp].d([m5C])[sp].d(T)[sp].d(A)[sp].d([m5C])[sp].d([m5C])[sp].d([m5C])[sp].d(T)[sp].d(A)[sp].d([m5C])[sp].[moe]([m5C])p.[moe]([m5C])p.[moe]([m5C])[sp].[moe](T)}$$$$ (last 3' nucleoside missing) | 1 score 0-7
13 | RNA1{[moe](G)[sp].[moe](T)p.[moe](A)p.[moe](G)p.[moe](G)p.d(G)[sp].d(T)[sp].d([m5C])[sp].d([m5C])[sp].d(T)[sp].d(T)[sp].d([m5C])[sp].d(A)[sp].d(A)[sp].d(A)[sp].[moe](T)p.[moe]([m5C])p.[moe](T)[sp].[moe](T)}$$$$ (last 3' nucleoside missing) | 1 score 0-7
14 | RNA1{[moe](G)[sp].[moe](T)p.[moe](A)p.[moe](T)p.[moe](A)p.d([m5C])[sp].d([m5C])[sp].d(A)[sp].d(A)[sp].d([m5C])[sp].d(T)[sp].d(T)[sp].d([m5C])[sp].d(A)[sp].d([m5C])[sp].[moe]([m5C])p.[moe](A)p.[moe](T)[sp].[moe]([m5C])}$$$$ (last 3' nucleoside missing) | 1 score 0-7
15 | RNA1{[moe](G)[sp].[moe](T)p.[moe](T)p.[moe](A)p.[moe]([m5C])p.d(A)[sp].d(A)[sp].d(T)[sp].d(T)[sp].d(A)[sp].d([m5C])[sp].d(A)[sp].d(T)[sp].d(A)[sp].d(G)[sp].[moe](T)p.[moe]([m5C])p.[moe]([m5C])[sp].[moe](G)}$$$$ (last 3' nucleoside missing) | 4.5 score 0-7
16 | RNA1{[moe](G)[sp].[moe](T)p.[moe](T)p.[moe](T)p.[moe](A)p.d(T)[sp].d([m5C])[sp].d(T)[sp].d(G)[sp].d(A)[sp].d(A)[sp].d(T)[sp].d(T)[sp].d([m5C])[sp].d(G)[sp].[moe]([m5C])p.[moe]([m5C])p.[moe](A)[sp].[moe](T)}$$$$ (last 3' nucleoside missing) | 5.25 score 0-7
17 | RNA1{[moe](G)[sp].[moe](T)p.[moe]([m5C])p.[moe](A)p.[moe](G)p.d(G)[sp].d(T)[sp].d(T)[sp].d(A)[sp].d(A)[sp].d([m5C])[sp].d([m5C])[sp].d(A)[sp].d(T)[sp].d(T)[sp].[moe](A)p.[moe]([m5C])p.[moe]([m5C])[sp].[moe](A)}$$$$ (last 3' nucleoside missing) | 2.5 score 0-7
18 | RNA1{[moe](G)[sp].[moe]([m5C])p.[moe](A)p.[moe](A)p.[moe](A)p.d(G)[sp].d(A)[sp].d(T)[sp].d(A)[sp].d(G)[sp].d(T)[sp].d(T)[sp].d(A)[sp].d([m5C])[sp].d([m5C])[sp].[moe]([m5C])p.[moe](T)p.[moe]([m5C])[sp].[moe]([m5C])}$$$$ (last 3' nucleoside missing) | 1 score 0-7
19 | RNA1{[moe](G)[sp].[moe]([m5C])p.[moe](A)p.[moe](A)p.[moe](T)p.d(G)[sp].d(T)[sp].d([m5C])[sp].d(A)[sp].d([m5C])[sp].d([m5C])[sp].d(T)[sp].d(T)[sp].d(T)[sp].d([m5C])[sp].[moe](A)p.[moe](T)p.[moe](A)[sp].[moe]([m5C])}$$$$ (last 3' nucleoside missing) | 0 score 0-7
20 | RNA1{[moe](G)[sp].[moe]([m5C])p.[moe]([m5C])p.[moe](A)p.[moe]([m5C])p.d(A)[sp].d(G)[sp].d(A)[sp].d([m5C])[sp].d(T)[sp].d([m5C])[sp].d(A)[sp].d(A)[sp].d(T)[sp].d(T)[sp].[moe](G)p.[moe](T)p.[moe](A)[sp].[moe](A)}$$$$ (last 3' nucleoside missing) | 1 score 0-7
21 | RNA1{[moe](T)[sp].[moe](G)p.[moe](T)p.[moe](T)p.[moe](T)p.d(A)[sp].d(T)[sp].d([m5C])[sp].d(T)[sp].d(G)[sp].d(A)[sp].d(A)[sp].d(T)[sp].d(T)[sp].d([m5C])[sp].[moe](G)p.[moe]([m5C])p.[moe]([m5C])[sp].[moe](A)}$$$$ (last 3' nucleoside missing) | 3 score 0-7
22 | RNA1{[moe](T)[sp].[moe](T)p.[moe](A)p.[moe]([m5C])p.[moe](A)p.d(A)[sp].d(T)[sp].d(T)[sp].d(A)[sp].d([m5C])[sp].d(A)[sp].d(T)[sp].d(A)[sp].d(G)[sp].d(T)[sp].[moe]([m5C])p.[moe]([m5C])p.[moe](G)[sp].[moe](A)}$$$$ (last 3' nucleoside missing) | 2 score 0-7
23 | RNA1{[moe](T)[sp].[moe]([m5C])p.[moe](A)p.[moe](T)p.[moe]([m5C])p.d(G)[sp].d(G)[sp].d(T)[sp].d(T)[sp].d(T)[sp].d([m5C])[sp].d([m5C])[sp].d([m5C])[sp].d(T)[sp].d(T)[sp].[moe](G)p.[moe]([m5C])p.[moe](A)[sp].[moe](G)}$$$$ (last 3' nucleoside missing) | 2.25 score 0-7
24 | RNA1{[moe](T)[sp].[moe]([m5C])p.[moe]([m5C])p.[moe](A)p.[moe]([m5C])p.d(G)[sp].d(A)[sp].d(A)[sp].d(T)[sp].d(T)[sp].d([m5C])[sp].d(A)[sp].d(G)[sp].d(T)[sp].d(T)[sp].[moe](T)p.[moe](G)p.[moe](T)[sp].[moe](G)}$$$$ (last 3' nucleoside missing) | 4 score 0-7
25 | RNA1{[moe]([m5C])[sp].[moe]([m5C])[sp].[moe](T)[sp].[moe](G)[sp].[moe](G)[sp].d(T)[sp].d(T)[sp].d(A)[sp].d(T)[sp].d(T)[sp].d(T)[sp].d([m5C])[sp].d([m5C])[sp].d([m5C])[sp].d(A)[sp].[moe](T)[sp].[moe](G)[sp].[moe](A)[sp].[moe](G)}$$$$ (last 3' nucleoside missing) | 6 score 0-7
26 | RNA1{[moe]([m5C])[sp].[moe]([m5C])p.[moe](G)p.[moe](T)p.[moe](G)p.d(T)[sp].d(T)[sp].d(G)[sp].d(T)[sp].d(T)[sp].d(T)[sp].d([m5C])[sp].d([m5C])[sp].d([m5C])[sp].d([m5C])[sp].[moe](G)p.[moe](A)p.[moe](A)[sp].[moe](A)}$$$$ (last 3' nucleoside missing) | 1 score 0-7
